Measured values from US9969741B2, “Pyrazolotriazines as inhibitors of nucleases” (MASARYKOVA UNIVERZITA, priority 2014, dated 2018).

target: T1, MUS81/EME1 (Homo sapiens, UniProt Q96NY9); assay: Nuclease inhibition assay, MUS81/EME1 (3′ flap fluorescent DNA substrate, gel readout); format: biochemical; conditions: 5 nM enzyme, 5 nM 3′ flap substrate, 15 min at 30° C.
T1 sequence (Q96NY9 1-551): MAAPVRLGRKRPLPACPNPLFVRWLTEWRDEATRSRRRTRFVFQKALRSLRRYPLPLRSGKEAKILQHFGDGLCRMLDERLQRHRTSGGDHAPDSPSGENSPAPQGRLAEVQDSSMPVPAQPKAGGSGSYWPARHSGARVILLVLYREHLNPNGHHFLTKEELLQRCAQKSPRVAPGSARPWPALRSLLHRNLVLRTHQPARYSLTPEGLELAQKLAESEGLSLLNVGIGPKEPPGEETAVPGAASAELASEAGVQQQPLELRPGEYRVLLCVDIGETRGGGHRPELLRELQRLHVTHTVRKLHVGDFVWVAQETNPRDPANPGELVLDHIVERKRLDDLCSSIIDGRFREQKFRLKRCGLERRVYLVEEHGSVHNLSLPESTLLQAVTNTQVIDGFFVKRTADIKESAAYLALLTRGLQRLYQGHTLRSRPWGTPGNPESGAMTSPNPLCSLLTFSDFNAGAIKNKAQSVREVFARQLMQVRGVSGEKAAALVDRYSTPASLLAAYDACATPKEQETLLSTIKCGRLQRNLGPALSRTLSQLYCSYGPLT
T1 sequence (Q96AY2 1-570 partner): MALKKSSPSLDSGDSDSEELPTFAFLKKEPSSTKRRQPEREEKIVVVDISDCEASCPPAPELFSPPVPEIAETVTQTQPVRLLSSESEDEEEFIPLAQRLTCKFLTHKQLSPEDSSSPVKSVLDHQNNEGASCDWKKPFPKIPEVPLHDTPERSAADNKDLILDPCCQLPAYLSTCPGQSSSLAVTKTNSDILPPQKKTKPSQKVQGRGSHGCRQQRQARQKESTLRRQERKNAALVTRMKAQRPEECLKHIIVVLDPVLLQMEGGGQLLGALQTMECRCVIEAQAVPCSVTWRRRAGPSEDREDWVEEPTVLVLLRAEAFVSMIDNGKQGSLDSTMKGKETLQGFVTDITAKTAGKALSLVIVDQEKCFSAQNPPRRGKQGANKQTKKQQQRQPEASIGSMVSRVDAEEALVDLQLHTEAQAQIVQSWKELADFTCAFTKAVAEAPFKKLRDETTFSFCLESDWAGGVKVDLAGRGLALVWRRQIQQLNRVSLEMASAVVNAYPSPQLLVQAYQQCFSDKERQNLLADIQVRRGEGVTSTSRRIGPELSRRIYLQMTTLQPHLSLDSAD
From the text: In vitro assays were used for the determination of compound's IC50 values for inhibition of individual nucleases, i.e., MUS81/EME1, FEN1, EXO1, and MRE11. To generate IC50 values, concentration of compound was plotted against relative nuclease activity (in %). The dose-response curves were generated from inhibition data, from 5 point serial dilutions of inhibitory compounds, each in triplicate and fitted to a standard sigmoid curve. IC50 values were derived by standard nonlinear regression analysis.
All tested compounds were diluted in 100% DMSO (dimethylsulfoxide) to prepare working stocks with different concentrations. To keep the DMSO concentration constant in every reaction, always 0.5 μl of the compound stock was added to the reaction buffer. The reaction buffer differs depending on the enzyme tested. Also concentration of the compounds in the reaction depends on the particular enzyme, since the inhibitory effect of the compounds vary between the enzymes. Nevertheless, always doubling dilutions in the range 200-0.8 μM was used. The compound was added as the first component in the reaction buffer, followed by the enzyme addition. Short (15 minutes) pre-incubation step followed before the reaction was initiated by addition of DNA substrate (5 nM).
As a negative control, DNA substrate specific for each particular enzyme without the addition of the enzyme and the compound was used. The positive control contained all components of the reaction, except the compound of interest. However, to compensate for solvent effects, DMSO (at a final concentration of 2.5%) was included in the reaction.
For this experiment we prepared short fluorescently labeled oligonucleotide-based DNA substrates with specific structures reflecting the biochemical activities of tested individual nucleases (Table 1). These substrates were prepared by annealing of synthetic oligonucleotides purchased from VBC Biotech. Composition of each substrate is indicated below the table; the corresponding oligonucleotides were combined in equimolar ratios. For visualization, each substrate was labeled by fluorescent dye (fluorescein), which can be detected in the gel using appropriate imaging system (FLA-9000, Fuji) with filters for particular wavelengths (excitation: 485 nm, emission: 535 nm).
Nuclease assays were performed in reaction buffer specific for particular enzyme: MUS81/EME1 (50 mM Tris pH=7.5, 5 mM MgCl2, 1 mM DTT a 100 μg/ml BSA), MRE11 (30 mM Bis-Tris pH=7.0, 50 μg/ml BSA, 1 mM DTT a 250 μM MnCl2), EXO1 and FEN1 (50 mM Tris pH=7.5, 1 mM MgCl2, 1 mM DTT a 100 μg/ml BSA). The individual reactions were prepared by mixing with highly purified enzyme (MUS81/EME1 (5 nM), MRE11 (5 nM), EXO1 (5 nM) or FEN1 (10 nM); purification protocols described below), and different concentration of inhibitor (mentioned above) in corresponding reaction buffer. The final volume of the reaction was 20 μl. After short pre-incubation (15 minutes at room temperature), the reaction was initiated by addition of 5 nM of corresponding fluorescently labeled DNA substrate (3′ flap for MUS81/EME1, 5′ flap for MRE11 and FEN1, 3′ OH for EXO1; see FIG. 1) and incubated for 15 minutes at 30° C. Next, the reaction was stopped and deproteinized by addition of 2 μl of stop buffer, containing 0.1% SDS and 500 μg/ml proteinase K, and incubated for additional 5 minutes at 30° C. Then the loading dye, containing glycerol (60% glycerol, 10 mM Tris pH=7.4, 60 mM EDTA a 0.1% Orange G), was added to each reaction ( 1/10 of the reaction volume), and the whole mixture was subjected to electrophoresis in 10% polyacrylamide native gel (110 V, 40 min, 1× TBE). Fluorescently labeled DNA was detected by FLA-9000 scanner (Fuji) and the result was evaluated using Multi-Gauge V3.2 software (Fuji).
The Mus81/Eme1 expression construct was a kind gift from Dr. Steve West (Cancer Research UK). Briefly, the nuclease complex was purified as follows. […]

Row | Compound | IC50 [µM]
1 | CCc1cc2nnc(-c3nc4ccccc4[nH]3)c(N)n2n1 [Preparative Example 5B] | < 50
2 | CC(C)c1nn2c(N)c(-c3nc4ccccc4[nH]3)nnc2c1-c1ccc(F)cc1 [Preparative Example 5D] | < 50
3 | CC(C)(C)c1cc2nnc(-c3nc4ccccc4[nH]3)c(N)n2n1 [Preparative Example 5F] | < 50
4 | Nc1c(-c2nc3ccccc3[nH]2)nnc2cc(-c3ccccc3Cl)nn12 [Preparative Example 5G] | < 50
5 | CCc1nn2c(N)c(-c3nc4ccccc4n3Cc3ccccc3)nnc2c1-c1ccc(F)cc1 [Preparative Example 5M] | < 50
6 | CCc1cc2nnc(-c3nc4ccccc4n3Cc3ccccc3)c(N)n2n1 [Preparative Example 5N] | < 50
7 | Nc1c(-c2nc3ccccc3[nH]2)nnc2ccnn12 [Preparative Example 5O] | > 50
8 | Nc1c(-c2nc3ccccc3[nH]2)nnc2c(-c3ccc(F)cc3)cnn12 [Preparative Example 5P] | > 50
9 | CCc1nn2c(N)c(-c3nc4ccccc4[nH]3)nnc2c1-c1cccc(-c2ccccc2)c1 [Preparative Example 5Y] | < 10
10 | CCc1nn2c(N)c(-c3nc4ccccc4[nH]3)nnc2c1-c1cccc(C(=O)OC)c1 [Preparative Example 5Z] | < 10
11 | CCc1nn2c(N)c(-c3nc4ccccc4[nH]3)nnc2c1-c1cccc(C(=O)O)c1 [Preparative Example 5Zb] | < 10
12 | Nc1c(-c2nc3ccccc3[nH]2)nnc2cc(CO)nn12 [Preparative Example 6] | > 50
13 | CCc1nn2c(O)c(-c3nc4ccccc4[nH]3)nnc2c1-c1ccc(F)cc1 [Preparative Example 8A] | < 10
14 | CCc1nn2c(N)c(C#N)nnc2c1-c1ccc(F)cc1 [Preparative Example 11] | > 50
15 | CCc1nn2c(N)c(C(N)=O)nnc2c1-c1ccc(F)cc1 [Preparative Example 12] | > 50
16 | CS(=O)(=O)c1ccc(-c2cnn3c(O)c(-c4nc5ccccc5n4Cc4ccccc4)nnc23)cc1 [Preparative Example 17A] | < 10
17 | O=[N+]([O-])c1ccc(-c2cnn3c(O)c(-c4nc5ccccc5n4Cc4ccccc4)nnc23)cc1 [Preparative Example 17B] | < 10
18 | Oc1c(-c2nc3ccccc3n2Cc2ccccc2)nnc2c(-c3ccsc3)cnn12 [Preparative Example 17C] | < 50
19 | Oc1c(-c2nc3ccccc3n2Cc2ccccc2)nnc2c(-c3ccncc3)cnn12 [Preparative Example 17D] | < 10
20 | Cn1ccc(-c2cnn3c(O)c(-c4nc5ccccc5n4Cc4ccccc4)nnc23)n1 [Preparative Example 17E] | < 50
21 | CS(=O)(=O)c1ccc(-c2cnn3c(O)c(-c4nc5ccccc5[nH]4)nnc23)cc1 [Preparative Example 18A] | < 10
22 | Cn1ccc(-c2cnn3c(O)c(-c4nc5ccccc5[nH]4)nnc23)n1 [Preparative Example 18B] | < 50
23 | CCc1nn2c(O)c(-c3nc4cc(C)c(C)cc4[nH]3)nnc2c1-c1ccc(F)cc1 [Preparative Example 21] | < 10

test system: not given; assay: not given; conditions: not given

Row | Compound | melting point
24 | CC(C)(C)[Si](OCc1cc2nnc(-c3nc4ccccc4[nH]3)c(N)n2n1)(c1ccccc1)c1ccccc1 | 233.5 to 234 °C
25 | Nc1c(-c2nc3ccccc3[nH]2)nnc2cc(-c3ccccc3-c3ccccc3)nn12 [Preparative Example 5L] | > 250 °C
26 | Nc1c(-c2nc3ccccc3[nH]2)nnc2cc(C=O)nn12 [Preparative Example 7] | > 250 °C
27 | CCc1nn2c(N)c(C#N)nnc2c1-c1ccc(F)cc1 [Preparative Example 11] | > 215 °C (dec.)
28 | CCc1nn2c(N)c(-c3nc4ccccc4[nH]3)nnc2c1Br [Preparative Example 13] | > 250 °C
